Laboratory results: US11091442B2, “Fluorosulfonyl-containing compound, intermediate thereof, preparation method therefor and use thereof” (SHANGHAI INSTITUTE OF ORGANIC CHEMISTRY, CHINESE ACADEMY OF …, priority 2017, dated 2021)
Where “and” joins values, the source holds several entries; their conditions need not be identical. Identical values can stand only once.

Key:
[1] = Stability in different humidity environments (sealed plastic bottles, 231 days of observation and testing); format: physicochemical; conditions: after 231 days
Method: This embodiment studies the stability of 1-(fluorosulfonyl)-2,3-dimethyl-1H-imidazolium trifluoromethanesulfonate in different humidity environments.
Experimental method: 1-(fluorosulfonyl)-2,3-dimethyl-1H-imidazolium trifluoromethanesulfonate was sampled (4.521 g, 4.298 g, 4.273 g) and placed into three plastic bottles (20 mL), which were then sealed with parafilm membrane. The three plastic bottles were placed on an experimental table (22° C.), in a refrigerator (4° C.) or in a dryer (22° C.).

[2] = Thermal stability on a melting point meter; format: physicochemical; conditions: temperature set at 129-240° C., heating gradient 1.0° C./min
Method: This embodiment studies the melting range and thermal stability of 1-(fluorosulfonyl)-2,3-dimethyl-1H-imidazolium trifluoromethanesulfonate
Experimental method: On a melting point meter, the temperature was set at 30-70° C. and the heating gradient at 0.5° C./min, the melting range of the substance of the embodiment was measured to be 62.1-64.2° C.: the temperature was set at 129-240° C. and the heating gradient at 1.0° C./min, the substance slowly bubbled at 135.2° C., and then turned from colorless to pale yellow at 176.5° C., turned to yellow at 185.6° C., turned to dark yellow at 189.9° C., and finally turned to black at 199.4° C.

[3] = Stability in deionized water, 19F-NMR tracking of the S-F signal; format: physicochemical; conditions: for S-F signal of the solution: deionized water, room temperature
Method: This embodiment studies the stability of 1-(fluorosulfonyl)-2,3-dimethyl-1H-imidazolium trifluoromethanesulfonate in deionized water
The experimental method: 1-(fluorosulfonyl)-2,3-dimethyl-1H-imidazolium trifluoromethanesulfonate ([…], 0.1 mmol) was dissolved in deionized water (1 mL) at room temperature to prepare a solution, and the pH value of the obtained solution was measured to be pH=1, ^19F-NMR tracked the change of the S—F signal of the solution, and the results are shown in Table 3.

| melting point | SMILES | other results |
| --- | --- | --- |
| 95.3 to 96.6 °C | O=S(=O)(F)c1ccc(-c2ccc(S(=O)(=O)F)cc2)cc1 |  |
| 83 to 84 °C | O=S(=O)(F)N1CCC(c2ccccc2)CC1 |  |
| 163.8 to 165.2 °C | CC(=O)c1c(OS(=O)(=O)F)ccc2c(C)cc(=O)oc12 |  |
| 205 to 207 °C | O=C(NC1CCN(S(=O)(=O)F)CC1)c1ccccc1 |  |
| 86.9 to 87.9 °C | O=[N+]([O-])c1ccc(OS(=O)(=O)F)c2ncccc12 |  |
| 150.3 to 152 °C | CC(=O)Nc1ccc(OS(=O)(=O)F)cc1 |  |
| 92.8 to 94.2 °C | O=C(/C=C/c1ccc(S(=O)(=O)F)cc1)c1ccccc1 |  |
| 85.3 to 87.9 °C | O=c1ccc2cc(OS(=O)(=O)F)ccc2o1 |  |
| 90 to 92 °C | O=S(=O)(F)NCCc1ccc(O)cc1 |  |
| 53 to 57 °C | Cc1ccc(C2CCCN2S(=O)(=O)F)cc1 (centres unmarked) |  |
| 80.1 to 81.1 °C | COc1cc(/C=C/c2ccc(OS(=O)(=O)F)cc2)cc(OC)c1 |  |
| 246 to 248 °C | O=S(=O)(F)N1CCN(S(=O)(=O)F)CC1 |  |
| 64.6 to 66.2 °C | Cc1ccc2c(Cl)cc(Cl)c(OS(=O)(=O)F)c2n1 |  |
| 76 to 78 °C | O=S(=O)(F)N[C@@H]1CCC[C@H]1OCc1ccccc1 |  |
| 50.8 to 51.8 °C | COc1cc(C=O)ccc1OS(=O)(=O)F |  |
| 81 to 84 °C | CC(C)(C)OC(=O)[C@H](NS(=O)(=O)F)c1ccccc1 |  |
| 184 to 186 °C | COc1cc(C(=O)NC2CCCN(S(=O)(=O)F)C2)cc(OC)c1OC (centres unmarked) |  |

| SMILES | melting point | other results |
| --- | --- | --- |
| O=S(=O)(F)N1CCC(Cc2ccccc2)CC1 | 54 to 58 °C and 58 to 61 °C and 57 to 61 °C |  |
| CC(C)c1n(S(=O)(=O)F)cc[n+]1C.O=S(=O)([O-])C(F)(F)F | 77 to 80 °C |  |
| CN1CN(S(=O)(=O)F)c2ccccc21.O=S(=O)(O)C(F)(F)F | 121 to 125 °C |  |
| Cc1n(S(=O)(=O)F)cc[n+]1C.O=S(=O)([O-])C(F)(F)F [Compound 4, 1-(fluorosulfonyl)-2,3-dimethyl-1H-imidazolium trifluoromethanesulfonate] | 58 to 60 °C | S-F signal in 19F NMR spectrum decreased by ([1]; placed in the dryer (22° C.)): by 4%; S-F signal in 19F NMR spectrum decreased by ([1]; placed in the refrigerator (4° C.)): decreased by 1%; S-F signal in 19F NMR spectrum decreased by ([1]; placed on the experimental table (22° C.)): by 25%; temperature at which the substance slowly bubbled [2]: 135.2 °C; temperature at which the substance turned from colorless to pale yellow [2]: 176.5 °C; temperature at which the substance turned to black [2]: 199.4 °C; temperature at which the substance turned to dark yellow [2]: 189.9 °C; temperature at which the substance turned to yellow [2]: 185.6 °C; pH value of the obtained solution ([3]; 36 mg, 0.1 mmol dissolved in deionized water (1 mL) at room temperature): 1; S-F signal of the solution ([3]; standing time 12 min): 0.77; S-F signal of the solution ([3]; standing time 30 min): 0.58; S-F signal of the solution ([3]; standing time 58 min): 0.35; S-F signal of the solution ([3]; standing time 2 h): 0.11; S-F signal of the solution ([3]; standing time 2 h 46 min): 0.05 |
